Legend:
Assay type in all cases: functional
Aspergillus fumigatus [1] = assay: Effect on polymorphonuclear neutrophil killing of Aspergillus fumigatus assessed as survival rate of fungi (reference value: 53% +/- 11%)
[2] = Inhibition of Aspergillus fumigatus-mediated dendritic cell maturation assessed as decreased CD1a expression at 10 uM
[3] = Inhibition of Aspergillus fumigatus-mediated dendritic cell maturation assessed as decreased CD80 expression at 10 uM
[4] = Induction of oxidative burst of polymorphonuclear neutrophil co-cultured with Aspergillus fumigatus germlings at 10 uM after 60 minutes relative to untreated control
[5] = Induction of TNF-alpha expression in […] dendritic cell co-cultured with Aspergillus fumigatus germ tube at 10 uM after 7 days by RT-PCR
[6] = Induction of oxidative burst of polymorphonuclear neutrophil co-cultured with Aspergillus fumigatus germlings at 10 uM after 120 minutes relative to untreated control
[7] = Inhibition of Aspergillus fumigatus-mediated dendritic cell maturation assessed as decreased CD40 expression at 10 uM
[8] = Induction of IL-2 expression in […] dendritic cell co-cultured with Aspergillus fumigatus germ tube at 10 uM after 7 days by RT-PCR
Aspergillus fumigatus [9] = assay: Effect on polymorphonuclear neutrophil killing of Aspergillus fumigatus assessed as survival rate of fungi at 10 ug/ml (reference value: 53% +/- 11%)
[10] = Inhibition of Aspergillus fumigatus-mediated dendritic cell maturation assessed as decreased CD86 expression at 10 uM
[11] = Inhibition of Aspergillus fumigatus-mediated dendritic cell maturation assessed as decreased CD83 expression at 10 uM

| SMILES | Survival (Aspergillus fumigatus [1]) [%] | inhibition at 10 µM [2] [%] | inhibition at 10 µM [3] [%] | fold change (FC) [4] | Activity [5] [%] | fold change (FC) [6] | inhibition at 10 µM [7] [%] | Activity [8] [%] | survival at 10 µg/mL (Aspergillus fumigatus [9]) [%] | inhibition at 10 µM [10] [%] | inhibition at 10 µM [11] [%] |
| --- | --- | --- | --- | --- | --- | --- | --- | --- | --- | --- | --- |
| CCCCCCCCCCCCCC(=O)O[C@@H]1[C@@H](C)[C@@]2(O)[C@@H](C=C(CO)C[C@]3(O)C(=O)C(C)=C[C@@H]23)[C@@H]2C(C)(C)[C@]12OC(C)=O [PHORBOL MYRISTATE ACETATE] | 26 |  |  |  |  |  |  |  |  |  |  |
| COc1c(C)c2c(c(O)c1C/C=C(\C)CCC(=O)O)C(=O)OC2 [MYCOPHENOLIC ACID] |  | 68.8 | 46.7 | 3.8 | 52 | 2.8 | 39.3 | 94 | 57 | 43.8 | 21.1 |

Source: ChEMBL document CHEMBL1275430, “Impact of mycophenolic acid on the functionality of human polymorphonuclear neutrophils and dendritic cells during interaction with Aspergillus fumigatus” (2008)
